Measurements as given in ChEMBL document CHEMBL1150976, “The selectivity of protein kinase inhibitors: a further update” (Biochem J, 2007).

Assays:
[1] = target: T1, 3-phosphoinositide-dependent protein kinase 1 (Homo sapiens) (UniProt O15530); assay: Percentage PDK1 activity remaining in the presence of 0.01uM inhibitor; conditions: filed as antagonist
T1 sequence (whole entry): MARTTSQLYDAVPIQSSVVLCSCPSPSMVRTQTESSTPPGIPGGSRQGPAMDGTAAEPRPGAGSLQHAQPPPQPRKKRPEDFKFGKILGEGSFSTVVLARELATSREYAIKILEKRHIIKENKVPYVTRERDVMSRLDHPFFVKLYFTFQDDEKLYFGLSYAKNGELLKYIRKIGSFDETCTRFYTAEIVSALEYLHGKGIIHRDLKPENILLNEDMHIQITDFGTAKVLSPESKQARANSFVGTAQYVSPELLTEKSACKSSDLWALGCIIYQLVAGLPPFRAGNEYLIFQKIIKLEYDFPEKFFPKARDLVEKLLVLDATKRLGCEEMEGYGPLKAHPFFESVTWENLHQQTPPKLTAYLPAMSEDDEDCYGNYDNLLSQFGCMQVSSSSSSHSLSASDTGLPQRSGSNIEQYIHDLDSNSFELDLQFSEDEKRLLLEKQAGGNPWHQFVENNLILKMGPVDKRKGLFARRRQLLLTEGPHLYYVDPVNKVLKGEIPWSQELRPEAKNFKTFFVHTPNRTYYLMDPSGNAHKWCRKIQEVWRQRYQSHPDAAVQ

[2] = target: Calcium/calmodulin-dependent protein kinase type 1 (Homo sapiens) (UniProt Q14012); assay: Percentage CaMK1 activity remaining in the presence of 25uM inhibitor
Calcium/calmodulin-dependent protein kinase type 1 (Homo sapiens), sequence (Q14012 whole entry, looked up): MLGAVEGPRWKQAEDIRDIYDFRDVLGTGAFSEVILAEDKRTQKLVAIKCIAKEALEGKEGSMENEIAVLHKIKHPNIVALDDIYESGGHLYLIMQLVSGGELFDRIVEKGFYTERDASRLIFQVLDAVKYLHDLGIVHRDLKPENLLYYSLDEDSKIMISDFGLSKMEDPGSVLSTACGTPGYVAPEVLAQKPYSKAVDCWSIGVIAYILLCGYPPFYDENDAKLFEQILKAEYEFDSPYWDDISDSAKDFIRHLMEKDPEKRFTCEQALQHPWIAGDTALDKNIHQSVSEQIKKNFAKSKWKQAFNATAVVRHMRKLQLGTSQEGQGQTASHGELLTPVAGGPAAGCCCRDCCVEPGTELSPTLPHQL

[3] = target: Calcium/calmodulin-dependent protein kinase kinase 1 (Homo sapiens) (UniProt Q8N5S9); assay: Percentage CaMKKalpha activity remaining in the presence of 25uM inhibitor
Calcium/calmodulin-dependent protein kinase kinase 1 (Homo sapiens), sequence (Q8N5S9 whole entry, looked up): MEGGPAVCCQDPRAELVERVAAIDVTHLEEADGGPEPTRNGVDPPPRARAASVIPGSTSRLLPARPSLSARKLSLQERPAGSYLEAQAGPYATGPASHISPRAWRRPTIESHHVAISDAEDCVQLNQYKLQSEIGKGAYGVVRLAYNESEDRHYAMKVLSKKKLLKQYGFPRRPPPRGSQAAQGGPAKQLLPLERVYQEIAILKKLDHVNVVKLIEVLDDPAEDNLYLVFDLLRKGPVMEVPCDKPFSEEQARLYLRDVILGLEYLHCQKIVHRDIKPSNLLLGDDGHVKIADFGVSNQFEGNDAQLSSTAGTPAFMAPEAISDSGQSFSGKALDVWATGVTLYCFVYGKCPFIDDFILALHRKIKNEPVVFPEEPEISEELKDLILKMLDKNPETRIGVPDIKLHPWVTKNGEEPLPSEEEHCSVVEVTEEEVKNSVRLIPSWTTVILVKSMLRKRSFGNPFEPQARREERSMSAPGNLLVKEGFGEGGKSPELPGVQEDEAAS

[4] = target: T2, Aurora kinase C (Homo sapiens) (UniProt Q9UQB9); assay: Percentage Aurora C activity remaining in the presence of 25uM inhibitor
T2 sequence (whole entry): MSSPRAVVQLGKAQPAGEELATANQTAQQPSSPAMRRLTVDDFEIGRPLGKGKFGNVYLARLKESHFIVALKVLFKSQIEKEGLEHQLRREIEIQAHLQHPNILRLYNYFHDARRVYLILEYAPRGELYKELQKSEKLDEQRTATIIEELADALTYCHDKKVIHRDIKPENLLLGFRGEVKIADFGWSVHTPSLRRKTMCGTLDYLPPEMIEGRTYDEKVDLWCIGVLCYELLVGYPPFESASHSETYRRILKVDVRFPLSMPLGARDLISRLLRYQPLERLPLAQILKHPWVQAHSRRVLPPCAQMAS

[5] = target: MAP/microtubule affinity-regulating kinase 3 (Homo sapiens) (UniProt P27448); assay: Percentage MARK3 activity remaining in the presence of 25uM inhibitor
MAP/microtubule affinity-regulating kinase 3 (Homo sapiens), sequence (P27448 whole entry, looked up): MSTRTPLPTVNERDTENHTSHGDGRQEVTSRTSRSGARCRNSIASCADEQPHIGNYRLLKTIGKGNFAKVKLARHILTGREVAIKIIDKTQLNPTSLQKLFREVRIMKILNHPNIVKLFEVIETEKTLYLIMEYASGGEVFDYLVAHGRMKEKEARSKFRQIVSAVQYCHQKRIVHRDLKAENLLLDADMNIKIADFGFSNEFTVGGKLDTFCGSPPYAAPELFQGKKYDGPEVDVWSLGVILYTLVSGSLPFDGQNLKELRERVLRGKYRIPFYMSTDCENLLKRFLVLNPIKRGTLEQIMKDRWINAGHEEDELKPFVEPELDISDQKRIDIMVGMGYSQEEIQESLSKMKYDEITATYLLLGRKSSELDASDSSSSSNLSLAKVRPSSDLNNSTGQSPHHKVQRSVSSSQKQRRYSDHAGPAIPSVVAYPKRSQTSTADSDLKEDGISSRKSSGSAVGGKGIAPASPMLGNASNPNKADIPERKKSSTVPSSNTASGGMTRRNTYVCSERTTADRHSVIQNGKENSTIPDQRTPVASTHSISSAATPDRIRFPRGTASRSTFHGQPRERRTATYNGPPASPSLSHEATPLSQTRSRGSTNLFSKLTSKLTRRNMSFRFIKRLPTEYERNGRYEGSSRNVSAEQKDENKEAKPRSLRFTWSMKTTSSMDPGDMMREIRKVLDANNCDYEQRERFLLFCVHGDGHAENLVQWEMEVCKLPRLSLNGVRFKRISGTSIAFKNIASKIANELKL

[6] = target: Serine/threonine-protein kinase PAK 4 (Homo sapiens, UniProt O96013); assay: Percentage PAK4 activity remaining in the presence of 25uM inhibitor
Serine/threonine-protein kinase PAK 4, sequence (O96013 whole entry, looked up): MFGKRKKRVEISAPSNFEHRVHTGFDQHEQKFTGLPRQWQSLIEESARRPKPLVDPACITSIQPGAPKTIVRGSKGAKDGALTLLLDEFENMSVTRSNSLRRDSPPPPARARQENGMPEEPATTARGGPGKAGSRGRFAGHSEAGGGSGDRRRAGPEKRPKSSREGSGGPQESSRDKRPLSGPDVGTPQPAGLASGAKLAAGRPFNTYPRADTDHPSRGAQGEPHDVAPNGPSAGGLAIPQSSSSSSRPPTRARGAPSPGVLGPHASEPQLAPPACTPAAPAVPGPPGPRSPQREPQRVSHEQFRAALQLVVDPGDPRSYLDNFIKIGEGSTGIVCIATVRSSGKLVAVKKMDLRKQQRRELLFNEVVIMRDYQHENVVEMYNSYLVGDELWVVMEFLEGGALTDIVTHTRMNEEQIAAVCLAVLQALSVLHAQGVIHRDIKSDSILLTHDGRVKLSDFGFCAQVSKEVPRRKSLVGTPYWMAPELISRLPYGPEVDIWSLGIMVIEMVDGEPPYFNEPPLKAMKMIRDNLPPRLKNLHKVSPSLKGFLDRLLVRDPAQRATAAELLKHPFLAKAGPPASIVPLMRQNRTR

[7] = target: Serine/threonine-protein kinase pim-1 (Homo sapiens, UniProt P11309); assay: Percentage PIM1 activity remaining in the presence of 25uM inhibitor; conditions: filed as antagonist
Serine/threonine-protein kinase pim-1, sequence (P11309 whole entry, looked up): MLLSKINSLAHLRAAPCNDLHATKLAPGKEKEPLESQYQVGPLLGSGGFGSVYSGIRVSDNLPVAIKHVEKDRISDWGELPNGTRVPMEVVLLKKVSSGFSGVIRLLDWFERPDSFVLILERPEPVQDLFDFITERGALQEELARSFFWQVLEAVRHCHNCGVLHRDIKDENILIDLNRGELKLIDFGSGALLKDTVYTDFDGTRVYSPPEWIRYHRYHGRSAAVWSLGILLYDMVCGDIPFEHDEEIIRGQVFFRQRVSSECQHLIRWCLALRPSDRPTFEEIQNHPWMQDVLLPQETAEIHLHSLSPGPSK

[8] = target: T3, Serine/threonine-protein kinase Sgk1 (Homo sapiens) (UniProt O00141); assay: Percentage SGK1 activity remaining in the presence of 25uM inhibitor
T3 sequence (whole entry): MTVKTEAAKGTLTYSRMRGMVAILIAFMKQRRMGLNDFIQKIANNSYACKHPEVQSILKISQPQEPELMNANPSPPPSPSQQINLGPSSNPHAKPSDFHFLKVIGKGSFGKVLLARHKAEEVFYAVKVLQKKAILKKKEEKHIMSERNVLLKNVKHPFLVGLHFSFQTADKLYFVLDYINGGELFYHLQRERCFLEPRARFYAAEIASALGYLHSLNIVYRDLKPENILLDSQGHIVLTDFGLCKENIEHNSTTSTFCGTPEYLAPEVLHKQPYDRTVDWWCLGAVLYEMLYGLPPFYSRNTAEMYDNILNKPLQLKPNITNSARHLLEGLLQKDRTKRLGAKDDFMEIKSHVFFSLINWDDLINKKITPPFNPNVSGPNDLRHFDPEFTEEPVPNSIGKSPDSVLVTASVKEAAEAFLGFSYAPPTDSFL

[9] = target: Proto-oncogene tyrosine-protein kinase LCK (Mus musculus) (UniProt P06240); assay: Percentage Lck activity remaining in the presence of 25uM inhibitor
Proto-oncogene tyrosine-protein kinase LCK (Mus musculus), sequence (P06240 2-509 limits assumed): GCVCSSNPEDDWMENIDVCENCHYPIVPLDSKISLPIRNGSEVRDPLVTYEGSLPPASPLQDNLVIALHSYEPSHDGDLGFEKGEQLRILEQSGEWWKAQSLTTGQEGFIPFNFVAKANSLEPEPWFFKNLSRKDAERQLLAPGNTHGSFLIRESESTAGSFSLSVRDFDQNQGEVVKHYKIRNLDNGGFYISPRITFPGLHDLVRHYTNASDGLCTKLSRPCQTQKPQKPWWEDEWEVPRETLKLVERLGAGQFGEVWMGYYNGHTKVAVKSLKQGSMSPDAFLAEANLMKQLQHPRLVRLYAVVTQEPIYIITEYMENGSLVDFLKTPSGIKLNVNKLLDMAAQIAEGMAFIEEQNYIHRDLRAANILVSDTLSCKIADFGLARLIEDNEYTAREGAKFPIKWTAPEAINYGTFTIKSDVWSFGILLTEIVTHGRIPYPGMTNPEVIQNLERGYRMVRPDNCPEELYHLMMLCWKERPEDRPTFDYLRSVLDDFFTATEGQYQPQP

[10] = target: Serine/threonine-protein kinase Nek6 (Homo sapiens) (UniProt Q9HC98); assay: Percentage NEK6 activity remaining in the presence of 25uM inhibitor
[11] = target: T4, Serine/threonine-protein kinase Chk1 (Homo sapiens) (UniProt O14757); assay: Percentage CHK1 activity remaining in the presence of 25uM inhibitor
T4 sequence (whole entry): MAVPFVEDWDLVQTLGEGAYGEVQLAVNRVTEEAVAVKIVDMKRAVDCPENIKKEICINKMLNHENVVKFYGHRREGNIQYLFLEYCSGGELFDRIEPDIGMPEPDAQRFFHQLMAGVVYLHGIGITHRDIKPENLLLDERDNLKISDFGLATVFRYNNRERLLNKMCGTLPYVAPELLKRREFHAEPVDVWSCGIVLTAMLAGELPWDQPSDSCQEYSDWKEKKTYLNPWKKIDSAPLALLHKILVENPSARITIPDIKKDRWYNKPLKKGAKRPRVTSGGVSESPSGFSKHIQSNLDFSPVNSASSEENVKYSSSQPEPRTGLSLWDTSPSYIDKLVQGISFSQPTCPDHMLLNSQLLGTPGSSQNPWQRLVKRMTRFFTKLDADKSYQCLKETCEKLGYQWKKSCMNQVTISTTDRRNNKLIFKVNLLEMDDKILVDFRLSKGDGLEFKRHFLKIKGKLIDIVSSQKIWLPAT

[12] = target: Rho-associated protein kinase 2 (Homo sapiens) (UniProt O75116); assay: Percentage ROCK2 activity remaining in the presence of 25uM inhibitor
[13] = target: Dual specificity mitogen-activated protein kinase kinase 1 (Homo sapiens) (UniProt Q02750); assay: Percentage MKK1 activity remaining in the presence of 25uM inhibitor
Dual specificity mitogen-activated protein kinase kinase 1 (Homo sapiens), sequence (Q02750 whole entry): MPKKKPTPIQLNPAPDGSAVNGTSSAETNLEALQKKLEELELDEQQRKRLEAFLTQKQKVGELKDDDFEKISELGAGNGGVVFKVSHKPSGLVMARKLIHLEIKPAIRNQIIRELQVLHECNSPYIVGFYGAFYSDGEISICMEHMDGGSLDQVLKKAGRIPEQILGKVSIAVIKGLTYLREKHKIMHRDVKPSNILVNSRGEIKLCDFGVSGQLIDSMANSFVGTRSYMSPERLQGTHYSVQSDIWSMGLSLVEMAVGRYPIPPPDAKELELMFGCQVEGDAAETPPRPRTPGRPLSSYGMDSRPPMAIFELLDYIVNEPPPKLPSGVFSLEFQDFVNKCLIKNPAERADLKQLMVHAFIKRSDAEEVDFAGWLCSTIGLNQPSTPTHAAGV

[14] = target: Mitogen-activated protein kinase 10 (Homo sapiens) (UniProt P53779); assay: Percentage JNK3 activity remaining in the presence of 25uM inhibitor
Mitogen-activated protein kinase 10 (Homo sapiens), sequence (P53779 whole entry, canonical isoform): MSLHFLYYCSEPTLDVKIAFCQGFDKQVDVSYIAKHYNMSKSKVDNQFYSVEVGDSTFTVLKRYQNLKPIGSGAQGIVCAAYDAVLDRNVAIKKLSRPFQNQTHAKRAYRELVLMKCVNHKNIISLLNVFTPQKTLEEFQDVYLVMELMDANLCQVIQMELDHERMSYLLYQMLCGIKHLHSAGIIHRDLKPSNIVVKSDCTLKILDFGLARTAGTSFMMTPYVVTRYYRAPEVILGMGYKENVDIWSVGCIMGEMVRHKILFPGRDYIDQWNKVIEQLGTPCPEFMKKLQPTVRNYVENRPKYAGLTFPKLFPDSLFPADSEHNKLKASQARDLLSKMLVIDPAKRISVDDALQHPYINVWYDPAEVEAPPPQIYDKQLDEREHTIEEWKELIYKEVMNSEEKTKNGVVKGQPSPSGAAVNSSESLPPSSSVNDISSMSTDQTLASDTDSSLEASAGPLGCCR

[15] = target: Casein kinase I isoform delta (Homo sapiens, UniProt P48730); assay: Percentage CK1delta activity remaining in the presence of 25uM inhibitor; conditions: filed as antagonist
Casein kinase I isoform delta, sequence (P48730 whole entry, looked up, canonical isoform): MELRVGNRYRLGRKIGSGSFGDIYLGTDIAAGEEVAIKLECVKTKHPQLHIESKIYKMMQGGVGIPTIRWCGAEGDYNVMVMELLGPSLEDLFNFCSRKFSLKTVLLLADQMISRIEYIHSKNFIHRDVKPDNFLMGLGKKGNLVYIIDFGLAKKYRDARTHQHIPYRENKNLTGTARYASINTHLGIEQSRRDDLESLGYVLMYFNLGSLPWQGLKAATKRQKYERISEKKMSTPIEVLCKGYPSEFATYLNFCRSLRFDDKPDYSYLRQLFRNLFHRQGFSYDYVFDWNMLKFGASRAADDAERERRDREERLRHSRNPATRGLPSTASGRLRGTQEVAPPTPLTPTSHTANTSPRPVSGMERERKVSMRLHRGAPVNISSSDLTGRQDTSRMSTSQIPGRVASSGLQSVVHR

[16] = target: Casein kinase II (Homo sapiens) (UniProt P67870+P68400+P19784); assay: Percentage CK2 activity remaining in the presence of 25uM inhibitor; assay type: protein-complex assay
[17] = target: Mitogen-activated protein kinase 14 (Homo sapiens, UniProt Q16539); assay: Percentage p38alpha activity remaining in the presence of 25uM inhibitor
Mitogen-activated protein kinase 14, sequence (Q16539 whole entry): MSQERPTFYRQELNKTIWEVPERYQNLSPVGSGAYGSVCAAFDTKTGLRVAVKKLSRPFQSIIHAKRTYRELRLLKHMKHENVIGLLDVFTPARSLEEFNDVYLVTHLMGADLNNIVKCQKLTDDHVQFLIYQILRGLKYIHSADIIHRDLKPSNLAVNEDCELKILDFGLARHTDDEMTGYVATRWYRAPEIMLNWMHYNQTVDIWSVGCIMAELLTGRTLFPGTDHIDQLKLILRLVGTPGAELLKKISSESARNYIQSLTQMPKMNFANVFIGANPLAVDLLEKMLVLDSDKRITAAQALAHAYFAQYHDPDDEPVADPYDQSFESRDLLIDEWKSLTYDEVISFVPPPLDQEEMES

SMILES | Activity [1] | Activity [2] | Activity [3] | Activity [4] | Activity [5] | Activity [6] | Activity [7] | Activity [8] | Activity ([9]; filed as antagonist) | Activity [10] | Activity [11] | Activity [12] | Activity [13] | Activity [14] | Activity [15] | Activity [16] | Activity [17] | Activity ([8]; filed as antagonist) | Activity [9]
O=C(NCCCNc1nc(Nc2cccc(NC(=O)N3CCCC3)c2)ncc1I)c1cccs1 | 30% | – | – | – | – | – | – | – | – | – | – | – | – | – | – | – | – | – | –
CN[C@@H]1C[C@H]2O[C@@](C)([C@@H]1OC)n1c3ccccc3c3c4c(c5c6ccccc6n2c5c31)C(=O)N[C@H]4O (stereo in doubt) | 2% | – | – | – | – | – | – | – | – | – | – | – | – | – | – | – | – | – | –
COc1cc(OC)c(/C=C2/C(=O)Nc3ccccc32)c(OC)c1 | – | 55% | 67% | 94% | 88% | 84% | 43% | 79% | 49% | 95% | 99% | 78% | 86% | 93% | 9% | 97% | 92% | – | –
NCCNS(=O)(=O)c1ccc(Cl)c2ccncc12 | – | 82% | 86% | 95% | 78% | 88% | 28% | – | – | 90% | 86% | 65% | 76% | 103% | 12% | 65% | 103% | 25% | 83%
